Experimental data: article PMC9719519, “Non-classical ferroptosis inhibition by a small molecule targeting PHB2” (Nature Communications, 2022)

Columns and labels:
Experiment in all cases: biochemical
Set-up in all cases: Eurofins recombinant human kinase profiling, remaining kinase activity as % of control, 10 uM ATP
Conditions in all cases: ATP 10 uM; read-out: %Ctrl@10 μM
ZAP-70(h) = molecular target: T1, ZAP-70(h) (Homo sapiens, UniProt P43403)
T1 construct: gene ZAP70
Method in brief: (§1)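 Recombinant human kinases, 401 in total, screened using an outsourced kinase profiling assay.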

CaMKIIα(h) = molecular target: T2, CaMKIIα(h) (Homo sapiens, UniProt Q9UQM7)
T2 construct: gene CAMK2A
Method in brief: as §1

TTK(h) = TTK(h) (Homo sapiens, UniProt P33981)
Method in brief: as §1

SLK(h) = SLK(h) (Homo sapiens, UniProt Q9H2G2)
Method in brief: as §1

Flt3(h) = Flt3(h) (Homo sapiens, UniProt P36888)
Method in brief: as §1

MLK3(h) = molecular target: T3, MLK3(h) (Homo sapiens, UniProt Q16584)
T3 construct: gene MAP3K11
Method in brief: as §1

IRAK4(h) = IRAK4(h) (Homo sapiens, UniProt Q9NWZ3)
Method in brief: as §1

GRK2(h) = GRK2(h) (Homo sapiens, UniProt P25098)
Method in brief: as §1

STK32B(h) = STK32B(h) (Homo sapiens, UniProt Q9NY57)
Method in brief: as §1

BrSK2(h) = BrSK2(h) (Homo sapiens, UniProt Q8IWQ3)
Method in brief: as §1

CDK5/p25(h) = molecular target: T4, CDK5/p25(h) (Homo sapiens, UniProt Q00535)
T4 construct: p25
Method in brief: as §1

p70S6K(h) = molecular target: T5, p70S6K(h) (Homo sapiens, UniProt P23443)
T5 construct: gene RPS6KB1
Method in brief: as §1

IKKε(h) = molecular target: T6, IKKε(h) (Homo sapiens, UniProt Q14164)
T6 construct: gene IKBKE
Method in brief: as §1

FGFR1(V561M)(h) = FGFR1(V561M)(h) (Homo sapiens, UniProt P11362, V561M)
Method in brief: as §1

Rsk4(h) = molecular target: T7, Rsk4(h) (Homo sapiens, UniProt Q9UK32)
T7 construct: gene RPS6KA6
Method in brief: as §1

CaMKIIγ(h) = molecular target: T8, CaMKIIγ(h) (Homo sapiens, UniProt Q13555)
T8 construct: gene CAMK2G
Method in brief: as §1

A-Raf(h) = molecular target: T9, A-Raf(h) (Homo sapiens, UniProt P10398)
T9 construct: gene ARAF
Method in brief: as §1

CDK2/cyclinE(h) = CDK2/cyclinE(h) (Homo sapiens, UniProt P24941)
Method in brief: as §1

MLK1(h) = molecular target: T10, MLK1(h) (Homo sapiens, UniProt P80192)
T10 construct: gene MAP3K9
Method in brief: as §1

ROCK-I(h) = molecular target: T11, ROCK-I(h) (Homo sapiens, UniProt Q13464)
T11 construct: gene ROCK1
Method in brief: as §1

HIPK2(h) = HIPK2(h) (Homo sapiens, UniProt Q9H2X6)
Method in brief: as §1

WNK4(h) = WNK4(h) (Homo sapiens, UniProt Q96J92)
Method in brief: as §1

SGK3(h) = SGK3(h) (Homo sapiens, UniProt Q96BR1)
Method in brief: as §1

Sequence of Flt3(h) (P36888 whole entry): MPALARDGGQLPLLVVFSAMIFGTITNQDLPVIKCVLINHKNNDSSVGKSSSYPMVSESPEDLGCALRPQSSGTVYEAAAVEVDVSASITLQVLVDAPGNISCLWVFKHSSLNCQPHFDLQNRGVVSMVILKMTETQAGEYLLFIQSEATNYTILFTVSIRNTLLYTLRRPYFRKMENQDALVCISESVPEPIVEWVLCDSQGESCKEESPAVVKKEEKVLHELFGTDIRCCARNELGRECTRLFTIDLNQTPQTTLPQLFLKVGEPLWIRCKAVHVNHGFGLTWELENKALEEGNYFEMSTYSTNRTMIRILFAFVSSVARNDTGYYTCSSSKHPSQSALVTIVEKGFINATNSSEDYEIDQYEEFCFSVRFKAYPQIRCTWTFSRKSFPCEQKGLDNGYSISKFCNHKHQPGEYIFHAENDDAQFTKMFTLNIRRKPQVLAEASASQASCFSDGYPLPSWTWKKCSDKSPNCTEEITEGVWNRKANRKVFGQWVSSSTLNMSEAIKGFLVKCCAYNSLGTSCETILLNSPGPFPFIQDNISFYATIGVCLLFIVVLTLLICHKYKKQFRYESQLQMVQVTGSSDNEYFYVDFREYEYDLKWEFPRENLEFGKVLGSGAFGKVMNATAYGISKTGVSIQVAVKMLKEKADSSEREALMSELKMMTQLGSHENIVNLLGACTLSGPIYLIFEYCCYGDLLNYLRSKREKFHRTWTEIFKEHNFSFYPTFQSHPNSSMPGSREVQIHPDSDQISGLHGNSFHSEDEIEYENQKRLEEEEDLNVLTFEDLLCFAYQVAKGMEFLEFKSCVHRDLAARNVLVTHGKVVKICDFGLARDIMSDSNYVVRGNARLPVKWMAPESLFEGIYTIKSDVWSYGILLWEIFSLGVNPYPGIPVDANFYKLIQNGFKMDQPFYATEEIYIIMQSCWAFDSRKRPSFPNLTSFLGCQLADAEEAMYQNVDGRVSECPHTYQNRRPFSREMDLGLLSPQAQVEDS
T5 sequence (P23443 whole entry): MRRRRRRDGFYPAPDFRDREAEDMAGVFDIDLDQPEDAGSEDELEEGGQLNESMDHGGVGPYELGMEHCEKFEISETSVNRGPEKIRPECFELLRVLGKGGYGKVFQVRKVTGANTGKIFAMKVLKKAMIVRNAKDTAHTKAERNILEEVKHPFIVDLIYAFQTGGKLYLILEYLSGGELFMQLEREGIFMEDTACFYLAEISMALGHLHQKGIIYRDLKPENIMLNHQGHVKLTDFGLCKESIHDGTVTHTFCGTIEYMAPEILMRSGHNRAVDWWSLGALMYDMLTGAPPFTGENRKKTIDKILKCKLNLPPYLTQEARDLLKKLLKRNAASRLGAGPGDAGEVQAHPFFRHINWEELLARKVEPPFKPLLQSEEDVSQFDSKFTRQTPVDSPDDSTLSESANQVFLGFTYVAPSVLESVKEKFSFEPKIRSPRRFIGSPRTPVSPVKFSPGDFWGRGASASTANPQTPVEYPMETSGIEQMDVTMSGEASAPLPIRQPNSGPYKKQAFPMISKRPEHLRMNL
T3 sequence (Q16584 whole entry): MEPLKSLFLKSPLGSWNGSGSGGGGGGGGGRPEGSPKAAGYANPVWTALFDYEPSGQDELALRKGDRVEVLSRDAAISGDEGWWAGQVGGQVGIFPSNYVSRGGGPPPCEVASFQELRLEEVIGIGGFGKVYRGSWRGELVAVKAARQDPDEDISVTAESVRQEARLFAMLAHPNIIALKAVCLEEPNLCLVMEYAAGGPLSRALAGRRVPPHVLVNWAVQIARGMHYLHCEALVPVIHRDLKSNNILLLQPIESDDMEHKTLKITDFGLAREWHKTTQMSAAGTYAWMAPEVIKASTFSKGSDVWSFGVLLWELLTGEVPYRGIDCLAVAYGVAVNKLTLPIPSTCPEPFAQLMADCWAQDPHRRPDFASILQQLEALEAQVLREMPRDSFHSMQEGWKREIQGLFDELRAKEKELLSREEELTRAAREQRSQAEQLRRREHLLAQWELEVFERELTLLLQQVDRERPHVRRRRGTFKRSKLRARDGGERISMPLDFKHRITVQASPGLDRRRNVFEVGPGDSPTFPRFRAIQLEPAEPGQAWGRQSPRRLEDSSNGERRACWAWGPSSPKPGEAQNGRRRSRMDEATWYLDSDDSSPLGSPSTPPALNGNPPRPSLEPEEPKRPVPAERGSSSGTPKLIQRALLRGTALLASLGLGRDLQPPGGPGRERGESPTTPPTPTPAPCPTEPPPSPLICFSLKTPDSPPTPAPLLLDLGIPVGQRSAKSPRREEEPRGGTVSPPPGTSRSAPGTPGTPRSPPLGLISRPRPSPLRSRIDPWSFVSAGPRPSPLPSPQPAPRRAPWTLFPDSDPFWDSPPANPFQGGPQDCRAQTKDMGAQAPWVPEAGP
Sequence of IRAK4(h) (Q9NWZ3 whole entry): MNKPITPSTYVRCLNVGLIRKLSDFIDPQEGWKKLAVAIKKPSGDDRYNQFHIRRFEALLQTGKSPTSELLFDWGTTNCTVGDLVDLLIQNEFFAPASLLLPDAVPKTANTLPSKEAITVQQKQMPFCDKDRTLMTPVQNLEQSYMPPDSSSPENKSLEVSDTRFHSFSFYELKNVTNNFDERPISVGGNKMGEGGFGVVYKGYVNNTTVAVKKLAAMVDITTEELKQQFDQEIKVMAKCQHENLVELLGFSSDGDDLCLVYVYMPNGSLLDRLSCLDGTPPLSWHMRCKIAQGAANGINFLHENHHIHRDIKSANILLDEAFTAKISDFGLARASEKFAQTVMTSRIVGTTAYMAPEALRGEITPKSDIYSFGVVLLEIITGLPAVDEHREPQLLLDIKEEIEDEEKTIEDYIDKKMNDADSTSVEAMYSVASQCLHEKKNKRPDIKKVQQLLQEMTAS
T8 sequence (Q13555 whole entry): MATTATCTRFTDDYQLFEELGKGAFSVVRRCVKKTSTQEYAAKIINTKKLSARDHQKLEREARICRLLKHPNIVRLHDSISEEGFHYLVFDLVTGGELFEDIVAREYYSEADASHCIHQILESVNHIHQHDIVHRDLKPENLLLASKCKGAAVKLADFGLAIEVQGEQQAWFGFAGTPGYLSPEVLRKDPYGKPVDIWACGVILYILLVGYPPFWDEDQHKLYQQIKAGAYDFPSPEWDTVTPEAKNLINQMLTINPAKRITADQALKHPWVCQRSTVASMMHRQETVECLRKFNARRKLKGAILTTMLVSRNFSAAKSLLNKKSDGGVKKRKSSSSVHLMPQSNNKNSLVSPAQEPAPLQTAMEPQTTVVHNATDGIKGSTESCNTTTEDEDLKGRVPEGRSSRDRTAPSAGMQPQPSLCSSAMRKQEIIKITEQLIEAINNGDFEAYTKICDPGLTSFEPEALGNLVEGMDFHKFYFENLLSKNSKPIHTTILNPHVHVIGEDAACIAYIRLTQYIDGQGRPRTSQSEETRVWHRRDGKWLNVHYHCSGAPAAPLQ
Sequence of STK32B(h) (Q9NY57 whole entry): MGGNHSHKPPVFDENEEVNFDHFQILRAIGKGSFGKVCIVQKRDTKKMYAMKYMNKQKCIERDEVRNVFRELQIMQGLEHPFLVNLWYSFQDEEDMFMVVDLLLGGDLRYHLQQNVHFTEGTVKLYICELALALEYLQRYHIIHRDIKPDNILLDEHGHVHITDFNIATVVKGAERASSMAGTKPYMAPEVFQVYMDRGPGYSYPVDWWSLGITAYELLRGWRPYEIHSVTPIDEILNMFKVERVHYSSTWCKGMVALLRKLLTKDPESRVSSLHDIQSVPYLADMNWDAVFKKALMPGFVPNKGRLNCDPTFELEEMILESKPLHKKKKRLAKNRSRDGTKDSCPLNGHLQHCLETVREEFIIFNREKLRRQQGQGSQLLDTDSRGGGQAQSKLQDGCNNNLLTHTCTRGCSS
T9 sequence (P10398 whole entry): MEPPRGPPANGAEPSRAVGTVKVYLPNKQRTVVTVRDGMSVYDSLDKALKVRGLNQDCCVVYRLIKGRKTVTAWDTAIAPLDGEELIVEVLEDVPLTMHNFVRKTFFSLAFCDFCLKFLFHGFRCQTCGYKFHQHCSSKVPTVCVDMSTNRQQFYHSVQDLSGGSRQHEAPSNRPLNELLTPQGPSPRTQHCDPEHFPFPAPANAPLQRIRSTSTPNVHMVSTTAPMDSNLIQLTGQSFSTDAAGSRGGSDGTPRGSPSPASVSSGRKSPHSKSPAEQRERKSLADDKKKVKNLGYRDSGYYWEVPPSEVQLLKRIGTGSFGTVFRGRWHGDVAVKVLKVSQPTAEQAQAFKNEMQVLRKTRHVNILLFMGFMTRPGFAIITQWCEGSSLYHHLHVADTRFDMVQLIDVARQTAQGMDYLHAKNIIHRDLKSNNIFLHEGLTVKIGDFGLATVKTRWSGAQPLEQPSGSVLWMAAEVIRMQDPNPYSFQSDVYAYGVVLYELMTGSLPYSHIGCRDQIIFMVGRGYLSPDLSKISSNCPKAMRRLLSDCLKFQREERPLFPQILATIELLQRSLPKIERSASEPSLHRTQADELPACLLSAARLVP
T1 sequence (P43403 whole entry): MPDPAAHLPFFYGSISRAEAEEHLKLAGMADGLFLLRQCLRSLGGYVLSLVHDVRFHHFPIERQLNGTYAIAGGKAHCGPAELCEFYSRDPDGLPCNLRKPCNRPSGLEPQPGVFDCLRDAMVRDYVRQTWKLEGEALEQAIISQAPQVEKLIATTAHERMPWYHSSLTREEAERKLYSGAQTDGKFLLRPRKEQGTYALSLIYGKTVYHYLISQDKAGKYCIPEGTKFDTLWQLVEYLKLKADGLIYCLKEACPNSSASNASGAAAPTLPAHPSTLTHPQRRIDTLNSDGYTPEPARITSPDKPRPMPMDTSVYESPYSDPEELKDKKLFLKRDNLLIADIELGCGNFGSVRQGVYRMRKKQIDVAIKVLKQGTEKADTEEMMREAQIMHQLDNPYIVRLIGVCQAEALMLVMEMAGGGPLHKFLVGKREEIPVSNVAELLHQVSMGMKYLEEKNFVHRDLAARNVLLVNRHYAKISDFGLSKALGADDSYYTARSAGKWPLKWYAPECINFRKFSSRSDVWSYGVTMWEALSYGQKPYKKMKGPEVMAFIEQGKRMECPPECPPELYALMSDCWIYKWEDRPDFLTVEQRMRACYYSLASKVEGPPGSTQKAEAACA

C1=C(c2nc(-c3cnn(C4CCNCC4)c3)cn3cc(-c4ccccc4)nc23)CCOC1 [YL-939]
remaining activity at 10 µM (ZAP-70(h)): 97% | remaining activity at 10 µM (CaMKIIα(h)): 64% | remaining activity at 10 µM (TTK(h)): 102% | remaining activity at 10 µM (SLK(h)): 70% | remaining activity at 10 µM (Flt3(h)): 86% | remaining activity at 10 µM (MLK3(h)): 111% | remaining activity at 10 µM (IRAK4(h)): 96% | remaining activity at 10 µM (GRK2(h)): 111% | remaining activity at 10 µM (STK32B(h)): 105% | remaining activity at 10 µM (BrSK2(h)): 101% | remaining activity at 10 µM (CDK5/p25(h)): 120% | remaining activity at 10 µM (p70S6K(h)): 61% | remaining activity at 10 µM (IKKε(h)): 113% | remaining activity at 10 µM (FGFR1(V561M)(h)): 65% | remaining activity at 10 µM (Rsk4(h)): 73% | remaining activity at 10 µM (CaMKIIγ(h)): 86% | remaining activity at 10 µM (A-Raf(h)): 83% | remaining activity at 10 µM (CDK2/cyclinE(h)): 85% | remaining activity at 10 µM (MLK1(h)): 86% | remaining activity at 10 µM (ROCK-I(h)): 94% | remaining activity at 10 µM (HIPK2(h)): 90% | remaining activity at 10 µM (WNK4(h)): 102% | remaining activity at 10 µM (SGK3(h)): 83%
